≈ marks a conversion by molar mass, not a printed value. Where two headings read alike, the source gives them in different places.
Columns and labels:
[1] = system: tdTomato-expressing Mtb CDC1551 strain; test: microbe, parasite or virus in culture; format: cell-based, Mycobacterium tuberculosis; settings: aurones at 100 μM, 3 days co-incubation, tdTomato fluorescence intensity; for inhibition at 100 µM: Mycobacterium tuberculosis, 72 h, read-out: Inhibitory rate
Mtb CDC1551 = test: Resazurin microtiter assay (REMA) for MICs; format: cell-based; settings: Mycobacterium tuberculosis, CDC1551, 168 h
[2] = target: Mtb chorismate synthase (Mtb-Cs, Rv2540c) (Mycobacterium tuberculosis, UniProt P9WPY1); test: Mtb chorismate synthase activity assay (coupled, Pi production with MESG/PNP); format: biochemical; settings: Pi production at A360, EPSP, FMN 0.04 mM, NADH 0.3 mM
Sequence of Mtb chorismate synthase (Mtb-Cs, Rv2540c) (P9WPY1 whole entry): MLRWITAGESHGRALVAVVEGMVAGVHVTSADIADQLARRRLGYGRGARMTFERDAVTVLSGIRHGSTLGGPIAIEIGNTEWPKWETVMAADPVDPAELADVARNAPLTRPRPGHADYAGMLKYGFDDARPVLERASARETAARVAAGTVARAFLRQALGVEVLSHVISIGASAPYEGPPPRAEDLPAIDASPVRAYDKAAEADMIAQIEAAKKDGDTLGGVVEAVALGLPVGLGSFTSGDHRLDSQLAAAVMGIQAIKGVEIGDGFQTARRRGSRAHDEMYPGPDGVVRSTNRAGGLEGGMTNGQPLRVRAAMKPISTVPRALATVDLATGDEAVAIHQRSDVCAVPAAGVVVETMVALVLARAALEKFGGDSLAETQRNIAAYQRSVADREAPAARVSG

THP-1 cells = test: MTT cell viability cytotoxicity assay, THP-1 derived macrophages; format: cell-based, human; settings: for IC50: Homo sapiens, THP-1, 48 h, read-out: IC50 THP-1; for SI (IC50/MIC) THP-1: IC50 THP-1 / MIC Mtb, 2880 min
HepG2 cells = test: MTT cell viability cytotoxicity assay, HepG2; format: cell-based, human; settings: for IC50: Homo sapiens, HepG2, 48 h, read-out: IC50 HepG2; for SI (IC50/MIC) HepG2: IC50 HepG2 / MIC Mtb, 2880 min; for selectivity index: on all three cell lines (HepG2, Vero, THP-1)
Procedure: Cytotoxicities of the aurones were evaluated in Vero cells (ATCC), HepG2 (ATCC), and THP-1 cells (ATCC) using the standard microculture tetrazolium (MTT) cell viability assay. Media used for the Vero cells was DMEM supplemented with 10% calf serum; for HepG2 cells the media used was DMEM supplemented with 20% calf serum; and for THP-1 cells the media used was RPMI-1640 supplemented with 10% calf serum (HyClone Cosmic Calf, GE Lifesciences). Cells were seeded into a 96-well plate. For THP-1 cells, phorbol-12-myristate-13-acetate (PMA) was used to induce the monocytes to develop into macrophages for 3 days before the cytotoxicity assay. A series of two-fold dilutions of aurones or RIF were added into the cell culture media in microplates to determine the concentration that eliminated 50% of eukaryotic cell growth in a 2-days incubation. Cells without drug treatment were incubated with the vehicle buffer and served as negative controls (100% viable). Cells treated with digitonin (100 μg/mL) served as the positive controls. After a 2-days incubation, 10 μL of MTT reagent was loaded into each well, and incubated for 3 h at 37°C. Hundred microliter of detergent solution was then added into each well and the 96-well plates were incubated for 2 h. Absorbance of each sample in the 96-well plates was measured at […]. Viability of each drug-treated sample was calculated as the absorbance of the sample divided by the absorbance of the untreated sample multiplied by 100.
We determined MICs of the top six aurone leads (AA2A, AA8, 9501, 9504, 9505, and 9510) using the standard resazurin microtiter assay (REMA) ([Palomino et al., 2002]). The MIC was defined as the lowest drug concentration that prevented the color change of resazurin from blue to pink. The MICs for 9504, 9505, 9501, 9510, AA2A, and AA8 were 6.25, 12.5, 25, 25, 25, and 50 μM, respectively (Table 2). We evaluated the cytotoxic effects of aurones to human liver cells HepG2, primate kidney Vero cells and human monocyte THP-1 cells after a 2-days incubation using the microculture tetrazolium (MTT) cell viability assay. Concentration gradients of the selected aurones or RIF (as a control) were incubated with the three cell lines. We calculated half maximal inhibitory concentration (IC50) of aurones on these three cell lines. By comparing MICs with IC50, we calculated the selectivity index (SI) for each aurone lead as […].

[3] = system: purine nucleoside phosphorylase (PNP); test: Purine nucleoside phosphorylase counter-assay; format: biochemical; settings: PNP 0.2 U, MESG 50 μM, potassium phosphate 10 mM
Procedure: FIGURE 4 AA2A and 9504 inhibit Mtb-Cs activity. (A) Assay to measure the ability of aurones to inhibit Cs of Mtb. (B) SDS-PAGE analysis of extracted rRv3227 (left) and rRv2540c (right). Lane 1: marker (PageRuler^M Unstained); 2: crude protein extracts; 3–5: samples eluted from Ni-column by 125, 250, and 500 mM imidazole, respectively; 6: the concentrated proteins eluted by 500 mM imidazole. (C) Evaluation of 9501, 9504, 9505, and 9510 inhibitory effects on Mtb-Cs activity. (D) Evaluation of AA2A and AA8 inhibitory effects on Mtb-Cs activity. Data are means of three independent experiments ± S.D. The reaction mixture comprised Mtb-Cs, various concentrations of aurone leads, EPSP ([…]), FMN (0.04 mM) and NADH (0.3 mM). The production of chorismate from the enzymatic reaction was determined by measuring Pi production using MESG (0.2 mM) and PNP (1 U). […] The reaction mixture comprised PNP (0.2 U), MESG (50 μM), potassium phosphate (10 mM), and aurones (50 μM for 9501, 9504, 9505, and 9510; 200 μM for AA2A and AA8). No significant differences (P > 0.05) were identified between each of the aurone-treated group and the positive control group. Data are means of three independent experiments ± S.D.

[4] = system: intracellular Mtb in THP-1 cell derived macrophages; test: Efficacy against intracellular Mtb in THP-1 derived macrophages; format: cell-based, Mycobacterium tuberculosis; settings: for Mtb CFU compared to the initial intracellular Mtb load (0 h) / CFUs of intracellular Mtb at 48 h compared to before treatment (0 h): 48 h; for CFUs of intracellular Mtb at 48 h compared to before treatment (0 h): 25 and 50 μM
Procedure: Human monocyte THP-1 cells were seeded at 5 × 10^4 cells / well in 96-well tissue culture black plates with clear bottoms. PMA was used to induce the monocytes to develop into macrophages for 3 days before infection. The tdTomato-expressing Mtb strain was employed for cell infection at an MOI = 20. After a 3 h incubation of the Mtb strain with THP-1 cells, extracellular bacteria were removed by washing twice with the cell culture medium. 200 μL of cell culture medium containing either 25 or 50 μM aurones or 1X MICs of amikacin (AMI, 1 μg/mL), ethambutol (ETH, 0.5 μg/mL), RIF (0.4 μg/mL) and isoniazid (INH) (0.5 μg/mL) was added to each well in triplicate and incubated for 48 h. Infected cells treated with the vehicle buffer served as negative controls. Cells were then lysed and plated for CFU counting.
FIGURE 2 Aurones inhibit intracellular Mtb. (A) Growth ratios of samples treated with the aurone leads or control drugs compared to the growth ratio of untreated control. Growth ratio of each sample = FI of each sample at 48 h / FI of the same sample at 0 h. (B) CFUs of samples treated with the aurone leads or control drugs compared to the CFU of untreated control at 0 and 48 h. 25 and 50 μM of the aurone leads were incubated with the infected cells (MOI = 20) after removing extracellular bacteria. Positive controls: AMI (1 μg/mL), ETH (0.5 μg/mL), INH (0.5 μg/mL), and RIF (0.4 μg/mL). Data are means of three independent experiments ± S.D. *P < 0.05, **P < 0.01, ****P < 0.0001.

Vero cells = test: MTT cell viability cytotoxicity assay, Vero; format: cell-based, primate; settings: for SI (IC50/MIC) Vero: IC50 Vero / MIC Mtb, 2880 min; for IC50: Primates, Vero, 48 h, read-out: IC50 Vero
[5] = system: tdTomato-expressing Mtb in the lungs of BALB/c mice; format: in vivo, Mycobacterium tuberculosis; settings: after a 12-days treatment
[6] = MTT cell viability cytotoxicity assay, Vero; format: cell-based, primate; settings: monkey, vero cells; MTT, 2-days incubation; read-out: IC50 Vero
Mtb = system: Mtb; set-up: method as in Jayaram et al., 2003; settings: 10 mg/kg, 12 daily oral doses; ref Jayaram et al., 2003; cited from earlier work
[7] = REMA, 7 days incubation, lowest concentration preventing resazurin colour change, read-out: MIC
[8] = MTT, 2-days incubation, PMA-induced macrophages

| Structure (SMILES) | Inhibitory rate [1] [%] | MIC (Mtb CDC1551; [7]) [µM] | IC50 [2] [µM] | inhibition at 100 µM [1] [%] | IC50 (THP-1 cells; [8]) [µM] | SI (IC50/MIC) THP-1 (THP-1 cells) | IC50 (HepG2 cells; MTT, 2-days incubation) [µM] | SI (IC50/MIC) HepG2 (HepG2 cells) | selectivity index (HepG2 cells) | inhibition of PNP ([3]; aurone 50 μM) | SI (IC50/MIC) Vero (Vero cells) | IC50 (Vero cells; MTT, 2-days incubation) [µM] | Mtb load in the lungs of infected mice [5] | Mtb CFU compared to the initial intracellular Mtb load (0 h) ([4]; 50 μM) | CFUs of intracellular Mtb at 48 h compared to before treatment (0 h) [4] | other results |
| --- | --- | --- | --- | --- | --- | --- | --- | --- | --- | --- | --- | --- | --- | --- | --- | --- |
| CC(=O)N1/C(=C\c2ccc[nH]2)C(=O)c2ccccc21 [AA5A] | 69.93 ± 10.09 |  |  |  |  |  |  |  |  |  |  |  |  |  |  |  |
| Cc1cc2c(cc1C)C(=O)C(=Cc1ccc(N(C)C)cc1)O2 [Aurone 9510] |  | 25 (≈ 7.33 µg/mL) | 15.1 ± 1.68 | 83.1 ± 1.62 | 693 | 27.71 | 451 | 18.06 | > 10 | do not inhibit | 35.69 | 892 |  |  |  | intracellular Mtb replication ([4]; 25 μM, at 48 h): did not fully inhibit |
| CN(C)c1ccc(C=C2Oc3cc(Br)ccc3C2=O)cc1 [Aurone 9504] |  |  | 17.1 ± 1.07 | 88.29 ± 0.16 |  | 100.50 |  | 126.40 | > 10 | do not inhibit | 87.98 |  | significantly reduced | reduced Mtb CFU significantly | did not increase | MIC (Mtb CDC1551): 6.25 µM (≈ 2.15 µg/mL); IC50 (THP-1 cells): 628 µM; IC50 (HepG2 cells): 790 µM; IC50 (Vero cells): 550 µM |
| O=C1C(=Cc2ccccc2)Nc2ccccc21 [AA8] |  | 50 (≈ 11.1 µg/mL) | 50.3 ± 8.61 | 71.9 ± 2 | 504 | 10.08 | 399 | 7.99 |  |  | 5.58 | 279 | significantly reduced |  | did not increase | inhibition of PNP ([3]; aurone 200 μM): do not inhibit |
| CC(=O)N1C(=Cc2ccccc2Br)C(=O)c2ccccc21 [AA2A] |  | 25 (≈ 8.55 µg/mL) | 24.1 ± 0.55 | 85.95 ± 0.38 | 110 | 4.39 | 118 | 4.71 |  |  | 5.13 | 128 | significantly reduced | reduced Mtb CFU significantly | did not increase | inhibition of PNP ([3]; aurone 200 μM): do not inhibit |
| CC(=O)N1/C(=C\c2ccc(CO)o2)C(=O)c2ccccc21 [AA4A] | 66.18 ± 0.98 |  |  |  |  |  |  |  |  |  |  |  |  |  |  |  |
| CN(C)c1ccc(C=C2Oc3cc(Cl)ccc3C2=O)cc1 [Aurone 9501] |  |  | 5.36 ± 1.65 | 85 ± 2.24 |  | 12.98 |  | 15.85 | > 10 | do not inhibit | 44.50 |  | significantly reduced | reduced Mtb CFU significantly | did not increase | MIC (Mtb CDC1551): 25 µM (≈ 7.49 µg/mL); IC50 (THP-1 cells): 325 µM; IC50 (HepG2 cells): 396 µM; CC50 at 48 h [6]: 1110 µM |
| CC(=O)N1/C(=C\c2ccccc2O)C(=O)c2ccccc21 [AA3A] | 41.32 ± 9.99 |  |  |  |  |  |  |  |  |  |  |  |  |  |  |  |
| CN(C)c1ccc(C=C2Oc3c(Br)cccc3C2=O)cc1 [Aurone 9505] |  | 12.5 (≈ 4.3 µg/mL) | 24.5 ± 9.44 | 84.4 ± 2.99 | 219 | 17.56 | 29.3 | 2.34 |  | do not inhibit | 38.34 | 479 |  | reduced Mtb CFU significantly | did not increase | Mtb CFU compared to the initial intracellular Mtb load (0 h) ([4]; 25 μM): reduced Mtb CFU significantly |
| CO[C@H]1/C=C/O[C@@]2(C)Oc3c(C)c(O)c4c(O)c(c(/C=N/N5CCN(C)CC5)c(O)c4c3C2=O)NC(=O)/C(C)=C\C=C\[C@H](C)[C@H](O)[C@@H](C)[C@@H](O)[C@@H](C)[C@H](OC(C)=O)[C@@H]1C [RIF, rifampicin, reference compound] |  | 0.5 (≈ 0.411 µg/mL) |  |  | 15 |  | 4.56 |  |  |  |  | 22.8 |  |  |  | CFU reduction in bacterial burden in the lungs (Mtb): ~1 log10 CFU |
